Values of other authors in patent publication US20250000865A1, “COMPOUND FOR REDUCING URIC ACID LEVELS” (NEWSOARA BIOPHARMA CO., LTD., priority 2021, published 2025).

Conditions: cited from earlier work

Compound: CCc1oc2ccccc2c1C(=O)c1cc(Br)c(O)c(Br)c1 [benbromarone, Benzbromarone]
- sUA target level reached (after long-term treatment): < 6 mg/dL
- side effects (in vivo): hepatotoxicity and acute liver failure
